{"source": "patent US10434083B2", "about": "“Transmammary delivery of cyclooxygenase-2 inhibitors for analgesia in neonates” (Iowa State University Research Foundation, Inc., priority 2018, dated 2019)", "key": {"[1]": {"assay": "in vivo", "settings": "female, Yorkshire×Landrace, swine", "procedure": "Tissue concentrations of firocoxib and its descyclopropylmethyl metabolite were determined using high-pressure liquid chromatography (Agilent 1100 Pump, Column Compartment and Autosampler, Agilent Technologies, Santa Clara, Calif., USA) with mass spectrometry detection (LTQ Ion Trap, Thermo Scientific, San Jose, Calif., USA). The tissue samples analysed were muscle, injection site, kidney, liver, and fat. Eight calibration spikes were prepared in blank porcine tissue in the concentration range of 0.05-10 μg/g. The tissue samples were thawed and homogenized in a Waring blender before extraction and analysis. […]\nPlasma and tissue firocoxib concentrations were determined using high-pressure liquid chromatography (Agilent 1100 Pump, Column Compartment and Autosampler, Agilent Technologies, Santa Clara, Calif.) with mass spectrometry detection (LTQ Ion Trap, Thermo Scientific, San Jose, Calif.). […] Full scan MS was used for analyte detection and three fragment ions were used for quantitation of each analyte species. […] Firocoxib and d6-firocoxib were analyzed in positive ion mode. […]\nFor plasma samples, the calibration curves had correlation coefficients (R^2) exceeding 0.995 across the concentration range. […] The limit of quantitation of the analysis was 1.0 ng/mL, with a limit of detection of 0.2 ng/mL. […]"}, "[2]": {"test_system": "plasma cortisol", "assay": "Plasma cortisol concentrations in piglets after processing (castration, tail docking, teeth clipping)", "format": "in vivo, swine", "procedure": "Castration, teeth clipping, and tail docking were completed for each male piglet between the 6-h and 8-h blood collection time points. […] Castration was performed using a number 10 scalpel blade to making two vertical incisions approximately 2-3 cm long in the skin covering the testicles. The testicles were then marsupialized, and manual pressure was applied to the spermatic cord until it separated from the piglet's body. Side-cutter pliers were used to remove the tail at the 6th coccygeal vertebral body, and the canine teeth were filed flush with the gingival tissue.\nTo accommodate blood volume restrictions, blood samples for cortisol determination were collected from three randomly selected piglets/litter (two male and one female piglet at each time point) prior to processing (6 h after firocoxib injection in the sow) and after processing at approximately […] after drug injection in the sow. These time points corresponded to approximately 0, 2, 6, 18, 42, 66 and 90 h after processing. The blood for cortisol analysis was collected in 3-mL heparinized blood collection tubes (BD Vacutainer, Franklin Lakes, N.J.) and then centrifuged for 10 min at 1,500×g. The plasma was collected, then immediately frozen and stored at −80° C. The analyses for plasma cortisol concentrations were performed within 60 d after sample collection and within 10 consecutive days once the analyses were started. Plasma cortisol concentrations were determined using a commercial radioimmunoassay kit (CortiCote I-125, MP Biomedicals, Santa Ana, Calif.). […]\nPlasma cortisol concentrations and ADG were analyzed using a nonlinear mixed-effects analysis incorporating both fixed effects and random effects (PROC GLMMIX; SAS university edition v9.04.01, SAS Institute, Cary, N.C.). […]\nTo account for the fact that not all the piglets were blood sampled at every time point due to blood volume restrictions in piglets, individual piglet peak cortisol concentrations (CortCmax) were calculated for each piglet after processing by visual inspection of the data. […]"}}, "note": "“Also recorded” adds a separate entry of the source.", "data": [{"compound": "CC1(C)OC(=O)C(OCC2CC2)=C1c1ccc(S(C)(=O)=O)cc1", "note": "[firocoxib]", "values": [{"measurement": "concentration at 21 d", "setting": "[1]", "value": "≤ 50", "unit": "ng/g"}, {"measurement": "mean plasma cortisol concentration at 2±1 h after processing", "setting": "[2]; male piglets, sow dose 2.0 mg/kg vs 0.5 mg/kg (P=0.0397) and 1.0 mg/kg (P=0.0416)", "value": "lower mean plasma cortisol concentration"}, {"measurement": "peak plasma cortisol of individual piglets (CortCmax)", "setting": "[2]; male piglets, 0.5 mg/kg (P=0.014) and 1.5 mg/kg (P=0.05) groups higher than 2.0 mg/kg", "value": "significant treatment effect"}, {"measurement": "plasma cortisol concentrations after processing, dose dependence", "setting": "[2]; piglets nursing sows given 0.5-2.0 mg/kg IM", "value": "reduces plasma cortisol concentrations after processing in a dose-dependent manner; also recorded: dose-dependent reduction of plasma cortisol concentrations"}]}]}
